Source: patent US20220389003A1, “4-SUBSTITUTED INDOLE AND INDAZOLE SULFONAMIDO DERIVATIVES AS PARG INHIBITORS” (IDEAYA BIOSCIENCES, INC., priority 2019, published 2022)
pIC50: −log10 of the molar value.

Experiments:
[1] = test system: HCC1806-XRCC1 KD (knock down) cells; assay: Cellular viability assay (Cell Titer-Glo); type: cell-based; settings: 96 h, HCC1806-shXRCC1 cells, 4 days of incubation, read-out: PARGi cell viability
Outline: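 XRCC1-knockdown HCC1806 cells seeded 24 h before dosing; 9-point 1:3 dilution from 30 μM top concentration, duplicates, 4-day incubation. Viability by CellTiter-Glo luminescence, normalized to DMSO wells as % of control; curves fit with 4-parameter inhibition model.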

PARG [2] = target: T1, PARG (Homo sapiens, UniProt Q86W56); assay: Inhibition of PARG enzymatic assay (TR-FRET enzymatic IC50 assay); type: biochemical; set-up: purchased Peak Proteins; settings: hPARG 250 pM, biotinylated-PARylated PARP substrate 30 nM
Outline: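 Compound preincubated 1 h with 250 pM His-tagged hPARG, then 30 nM biotinylated PARylated hPARP1 substrate added for 10 min; buffer 50 mM Tris-HCl pH 7.4, EDTA/EGTA, 1 mM DTT, 23° C. TR-FRET read after 1 h with anti-His ULight antibody and streptavidin-europium; inhibition scaled between DMSO and no-enzyme controls.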

PARG [3] = target: T1, PARG; assay: Inhibition of PARG cellular assay (PAR foci in HeLa cells after MMS); type: cell-based; set-up: endogenous in cells; host or cells: HeLa; settings: compound 1 h then MMS 1 h
Outline: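 HeLa cells pretreated with compound for 1 h, then given MMS for a further 1 h, fixed and immunostained for PAR polymer. High-content imaging quantified nuclear PAR foci intensity (PAR Foci IC50) and percent cells with foci signal >1.3 (PAR % positive IC50).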

T1 sequence (Q86W56 whole entry): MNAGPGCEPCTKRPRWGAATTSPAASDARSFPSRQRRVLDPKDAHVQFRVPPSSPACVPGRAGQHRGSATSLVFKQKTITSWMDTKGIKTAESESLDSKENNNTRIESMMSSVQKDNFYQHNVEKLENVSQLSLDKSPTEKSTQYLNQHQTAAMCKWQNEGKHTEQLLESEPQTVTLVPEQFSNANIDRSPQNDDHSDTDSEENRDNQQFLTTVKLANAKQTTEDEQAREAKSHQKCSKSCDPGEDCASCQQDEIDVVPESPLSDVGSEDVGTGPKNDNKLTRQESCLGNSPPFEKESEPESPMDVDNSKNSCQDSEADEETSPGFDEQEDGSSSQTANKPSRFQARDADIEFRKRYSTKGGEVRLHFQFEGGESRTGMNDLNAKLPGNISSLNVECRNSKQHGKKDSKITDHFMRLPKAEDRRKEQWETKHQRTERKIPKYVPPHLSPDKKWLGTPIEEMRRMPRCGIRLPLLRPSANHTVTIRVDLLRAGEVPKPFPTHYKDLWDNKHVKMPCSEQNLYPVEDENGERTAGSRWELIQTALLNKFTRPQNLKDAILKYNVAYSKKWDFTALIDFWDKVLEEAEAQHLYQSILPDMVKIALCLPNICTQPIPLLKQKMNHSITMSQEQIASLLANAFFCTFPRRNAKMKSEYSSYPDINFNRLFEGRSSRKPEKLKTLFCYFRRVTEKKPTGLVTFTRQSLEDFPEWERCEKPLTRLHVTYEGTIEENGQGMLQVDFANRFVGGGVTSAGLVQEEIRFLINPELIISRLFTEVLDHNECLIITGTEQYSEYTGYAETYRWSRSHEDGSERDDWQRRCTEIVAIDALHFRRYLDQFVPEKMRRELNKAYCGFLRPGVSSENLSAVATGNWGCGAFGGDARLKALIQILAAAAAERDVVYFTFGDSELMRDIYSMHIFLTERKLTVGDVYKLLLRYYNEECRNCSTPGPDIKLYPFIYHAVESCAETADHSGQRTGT

Row | pIC50 [1] | pIC50 (PARG [2]) | pIC50 (PARG [3]) | SMILES
1 | 5.00 to 6.00 | 6.00 to 6.52 | 6.00 to 6.52 | N#CC1(NS(=O)(=O)c2cc(N3CCN(c4cccnc4)CC3)c3cnn(-c4nnc(C(F)F)s4)c3c2)CC1 [Example 94, 1-[({1-[5-(difluoromethyl)(1,3,4-thiadiazol-2-yl)]-4-(4-(3-pyridyl)piperazinyl)-1H-indazol-6-yl}sulfonyl)amino]cyclopropanecarbonitrile]
2 | 5.00 to 6.00 | ≥ 7.00 | 6.52 to 7.00 | N#CC1(NS(=O)(=O)c2cc(N3CCN(c4cccnn4)CC3)c3cnn(-c4nnc(C(F)F)s4)c3c2)CC1 [Example 95, 1-[({1-[5-(difluoromethyl)(1,3,4-thiadiazol-2-yl)]-4-(4-pyridazin-3-ylpiperazinyl)-1H-indazol-6-yl}sulfonyl)amino]cyclopropanecarbonitrile]
3 | 5.00 to 6.00 | ≥ 7.00 | ≥ 7.00 | N#CC1(NS(=O)(=O)c2cc(N3CCN(C(=O)c4ccccc4)CC3)c3cnn(-c4nnc(C(F)F)s4)c3c2)CC1 [Example 96, 1-[({1-[5-(difluoromethyl)(1,3,4-thiadiazol-2-yl)]-4-[4-(phenylcarbonyl)piperazinyl]-1H-indazol-6-yl}sulfonyl)amino]cyclopropanecarbonitrile]
4 | 5.00 to 6.00 | ≥ 7.00 | 6.52 to 7.00 | Cc1nnc(-n2ncc3c(N4CCN(C(=O)C(C)C)CC4)cc(S(=O)(=O)NC4(C#N)CC4)cc32)s1 [Example 97, 1-[({1-(5-methyl(1,3,4-thiadiazol-2-yl))-4-[4-(2-methylpropanoyl)piperazinyl]-1H-indazol-6-yl}sulfonyl)amino]cyclopropanecarbonitrile]
5 | 5.00 to 6.00 | 6.52 to 7.00 | 5.00 to 6.00 | CC(C)NS(=O)(=O)c1cc(N2CCN(C(=O)C(C)C)CC2)c2cnn(-c3nnc(C(F)F)s3)c2c1 [Example 98, 1-[4-(1-[5-(difluoromethyl)(1,3,4-thiadiazol-2-yl)]-6-{[(methylethyl)amino]sulfonyl}(1H-indazol-4-yl))piperazinyl]-2-methylpropan-1-one]
6 | 5.00 to 6.00 | 6.52 to 7.00 | 5.00 to 6.00 | CC(C)C(=O)N1CCN(c2cc(S(=O)(=O)NC(C)(C)C)cc3c2cnn3-c2nnc(C(F)F)s2)CC1 [Example 99, 1-[4-(1-[5-(difluoromethyl)(1,3,4-thiadiazol-2-yl)]-6-{[(tert-butyl)amino]sulfonyl}(1H-indazol-4-yl))piperazinyl]-2-methylpropan-1-one]
7 | 5.00 to 6.00 | 6.52 to 7.00 | 6.00 to 6.52 | N#CC1(NS(=O)(=O)c2cc(N3CCOCC3)c3cnn(-c4nnc(C(F)F)s4)c3c2)CC1 [Example 100, 1-[({1-[5-(difluoromethyl)(1,3,4-thiadiazol-2-yl)]-4-morpholin-4-yl-1H-indazol-6-yl}sulfonyl)amino]cyclopropanecarbonitrile]
8 | 5.00 to 6.00 | 6.52 to 7.00 | 6.52 to 7.00 | C[C@H]1CN(c2cc(S(=O)(=O)NC3(C#N)CC3)cc3c2cnn3-c2nnc(C(F)F)s2)CCO1 [Example 103, (S)—N-(1-cyanocyclopropyl)-1-(5-(difluoromethyl)-1,3,4-thiadiazol-2-yl)-4-(2-methylmorpholino)-1H-indazole-6-sulfonamide]
9 | 5.00 to 6.00 | 6.00 to 6.52 | 6.00 to 6.52 | N#CC1(NS(=O)(=O)c2cc(N3CCC(F)CC3)c3cnn(-c4nnc(C(F)F)s4)c3c2)CC1 [Example 104, 1-[({1-[5-(difluoromethyl)(1,3,4-thiadiazol-2-yl)]-4-(4-fluoropiperidyl)-1H-indazol-6-yl}sulfonyl)amino]cyclopropanecarbonitrile]
10 | 5.00 to 6.00 | ≥ 7.00 | ≥ 7.00 | C[C@@H]1CN(c2cc(S(=O)(=O)NC3(C#N)CC3)cc3c2cnn3-c2nnc(C(F)F)s2)CCN1C(=O)C1CCN(CC(F)F)CC1 [Example 106, 1-({[4-((3R)-4-{[1-(2,2-difluoroethyl)(4-piperidyl)]carbonyl}-3-methylpiperazinyl)-1-[5-(difluoromethyl)(1,3,4-thiadiazol-2-yl)]-1H-indazol-6-yl]sulfonyl}amino) cyclopropanecarbonitrile]
11 | 5.00 to 6.00 | ≥ 7.00 | 6.52 to 7.00 | N#CC1(NS(=O)(=O)c2cc(N3CCN(C(=O)C4CCN(CC(F)F)CC4)CC3)c3cnn(-c4nnc(C(F)F)s4)c3c2)CC1 [Example 107, 1-({[4-(4-{[1-(2,2-difluoroethyl)(4-piperidyl)]carbonyl}piperazinyl)-1-[5-(difluoro-methyl)(1,3,4-thiadiazol-2-yl)]-1H-indazol-6-yl]sulfonyl}amino)cyclopropane carbonitrile]
12 | > 6.00 | ≥ 7.00 | ≥ 7.00 | C[C@@H]1CN(c2cc(S(=O)(=O)NC3(C#N)CC3)cc3c2cnn3-c2nnc(C(F)F)s2)CCN1C(=O)C1(C)CC1 [Example 108, 1-{[(4-{(3R)-3-methyl-4-[(methylcyclopropyl)carbonyl]piperazinyl}-1-[5-(difluoro-methyl)(1,3,4-thiadiazol-2-yl)]-1H-indazol-6-yl)sulfonyl]amino}cyclopropane carbonitrile]
13 | > 6.00 | ≥ 7.00 | ≥ 7.00 | C[C@@H]1CN(c2cc(S(=O)(=O)NC3(C#N)CC3)cc3c2cnn3-c2nnc(C(F)F)s2)CCN1C(=O)C1(C)CCC1 [Example 109, 1-{[(4-{(3R)-3-methyl-4-[(methylcyclobutyl)carbonyl]piperazinyl}-1-[5-(difluoro-methyl)(1,3,4-thiadiazol-2-yl)]-1H-indazol-6-yl)sulfonyl]amino}cyclopropane carbonitrile]
14 | > 6.00 | ≥ 7.00 | 6.52 to 7.00 | CCC(C)C(=O)N1CCN(c2cc(S(=O)(=O)NC3(C#N)CC3)cc3c2cnn3-c2nnc(C(F)F)s2)C[C@H]1C (stereo partly drawn) [Example 110, 1-[({4-[(3R)-3-methyl-4-(2-methylbutanoyl)piperazinyl]-1-[5-(difluoromethyl)-(1,3,4-thiadiazol-2-yl)]-1H-indazol-6-yl}sulfonyl)amino]cyclopropane carbonitrile]
15 | > 6.00 | ≥ 7.00 | ≥ 7.00 | CC1(C(=O)N2CCN(c3cc(S(=O)(=O)NC4(C#N)CC4)cc4c3cnn4-c3nnc(C(F)F)s3)CC2)CC1 [Example 111, 1-{[(1-[5-(difluoromethyl)(1,3,4-thiadiazol-2-yl)]-4-{4-[(methylcyclopropyl)carbonyl]piperazinyl}-1H-indazol-6-yl)sulfonyl]amino}cyclopropanecarbonitrile]
16 | > 6.00 | ≥ 7.00 | ≥ 7.00 | CC1(C(=O)N2CCN(c3cc(S(=O)(=O)NC4(C#N)CC4)cc4c3cnn4-c3nnc(C(F)F)s3)CC2)CCC1 [Example 112, 1-{[(1-[5-(difluoromethyl)(1,3,4-thiadiazol-2-yl)]-4-{4-[(methylcyclobutyl)carbonyl]piperazinyl}-1H-indazol-6-yl)sulfonyl]amino}cyclopropanecarbonitrile]
17 | > 6.00 | ≥ 7.00 | ≥ 7.00 | CCC(C)C(=O)N1CCN(c2cc(S(=O)(=O)NC3(C#N)CC3)cc3c2cnn3-c2nnc(C(F)F)s2)CC1 (stereo not drawn) [Example 113, 1-[({1-[5-(difluoromethyl)(1,3,4-thiadiazol-2-yl)]-4-[4-(2-methylbutanoyl)piperazinyl]-1H-indazol-6-yl}sulfonyl)amino]cyclopropanecarbonitrile]
